In patent US10065931B2, “Quinazolin crotyl compound dimaleate crystals and preparation methods and uses thereof” (HANGZHOU HUADONG MEDICINE GROUP BIOPHARMACEUTICAL CO., LTD., priority 2015, dated 2018):
≈ marks a conversion by molar mass, not a printed value. Like-named read-outs stand apart in the source and are kept apart here.

Assays:
Type in all cases: physicochemical
[1] = Storage stability test, chemical content by HPLC; conditions: for Initial content: before storage; for Chemical stability, 25° C./60% R.H. One week / Chemical stability, 40° C./75% R.H. One week: chemical content as % of initial content; for Chemical content after storage (in words): one week, 40° C./75% R.H.
[2] = Competition of stability between crystal form K and crystal form G in water (XRPD); conditions: 12 hours stirring, room temperature
Procedure: After 12 hours of stirring under room temperature, the solid was separated by centrifugation and was subjected to XRPD test, the results are shown in FIG. 20.

[3] = Storage stability test, physical stability by XRPD; conditions: for XRPD pattern after storage (physical stability): one week of storage, 25° C./60% R.H. and 40° C./75% R.H.
Procedure: In the following examples, the XRPD of the crystal form was determined using a PANalytical Empyrean X-ray powder diffraction analyzer, the parameters are summarized in Table 1.

[4] = Second set of competition of stabilities between crystal form K and crystal form F (solid mixture stored 10 days, XRPD)
Text: Then two samples were placed in different environments for 10 days and were subjected to XRPD test respectively.

[5] = Solubility in water, FaSSIF, FeSSIF and SGF
Procedure: Wherein FaSSIF and FeSSIF were prepared according to the method described in the literature: Study of a Standardized Taurocholate-Lecithin Powder for Preparing the Biorelevant Media FeSSIF and FaSSIF (Kloefer, B., van Hoogevest, P., Moloney, R., Kuentz, M., Leigh, M. L., & Dressman, J. (2010). Dissolution Technologies, August 17(3), 6-14. SGF was prepared according to the method described in the literature Albendazole Generics-A Comparative In Vitro Study (Galia E., Horton, J and Dressman J. (1999) Pharmaceutical Research, 16 (12), […]). The test results are summarized in Table 6.

[6] = First set of competition of stabilities between crystal form K and crystal form F (suspension, different water activities, XRPD); conditions: room temperature
Procedure: After 12 hours of stirring under room temperature, the solid was isolated by centrifugation and the XRPD thereof was tested.

In the case of `CN(C)C/C=C/C(=O)Nc1cc2c(Nc3ccc(F)c(Cl)c3)ncnc2cc1OC(F)F` [Crystal form G], the Initial content [1] is reported as 100.0%, the “Chemical stability, 25° C./60% R.H. One week” value [1] is reported as 99.8% and the “Chemical stability, 40° C./75% R.H. One week” value [1] is reported as 99.6%. For the same compound, the “Chemical content after storage (in words)” value (from here on “Chemical content”) [1] was “stable” and the “Crystal form after competition with crystal form K in saturated water solution” value [2] was “converted to crystal form K”.
In the case of `CN(C)C/C=C/C(=O)Nc1cc2c(Nc3ccc(F)c(Cl)c3)ncnc2cc1OC(F)F` [Crystal form E], the Initial content [1] is reported as 100.0%, the “Chemical stability, 25° C./60% R.H. One week” value [1] is reported as 99.8% and the “Chemical stability, 40° C./75% R.H. One week” value [1] is reported as 99.5%.
With `CN(C)C/C=C/C(=O)Nc1cc2c(Nc3ccc(F)c(Cl)c3)ncnc2cc1OC(F)F` [Crystal form F] the “XRPD pattern after storage (physical stability)” value [3] was “basically the same”, the Initial content [1] was 100.0% and the “Chemical stability, 25° C./60% R.H. One week” value [1] was 99.8%. For the same compound, the “Chemical stability, 40° C./75% R.H. One week” value [1] was 99.7%, the “Chemical content” value [1] was “stable” and the “Crystal form after storage of crystal form F mixed with about 1% crystal form K” value (shortened to “Crystal form … with about 1% crystal form K”) ([4]; 25° C., 60% R.H.) was “form F”. For the same compound, the “Crystal form … with about 1% crystal form K” value ([4]; 25° C., 60% R.H., listed as crystal form F) was “did not change”, the “Crystal form … with about 1% crystal form K” value ([4]; 40° C., 75% R.H.) was “form K” and the “Crystal form … with about 1% crystal form K” value ([4]; 40° C., 75% R.H., listed as crystal form F) was “converted to the crystal form K”. For the same compound, the Solubility ([5]; FaSSIF, pH 6.5) was 2440 µg/mL (≈ 5.24 mM), the Solubility ([5]; FeSSIF, pH 5.0) was 570 µg/mL (≈ 1.22 mM) and the Solubility ([5]; SGF, pH 1.8) was greater than 10650 µg/mL. The Solubility ([5]; Water, pH 7.4) was greater than 9810 µg/mL.
For `CN(C)C/C=C/C(=O)Nc1cc2c(Nc3ccc(F)c(Cl)c3)ncnc2cc1OC(F)F` [Crystal form K], the “XRPD pattern after storage (physical and chemical stability)” value ([3]; 6 months of storage, 40° C./75% R.H.) was “basically the same”, the “XRPD pattern after storage (physical stability)” value [3] was “basically the same” and the Initial content [1] was 100.0%. For the same compound, the “Chemical stability, 25° C./60% R.H. One week” value [1] was 99.9%, the “Chemical stability, 40° C./75% R.H. One week” value [1] was 99.8% and the “Chemical content” value [1] was “stable”. For the same compound, the Solubility ([5]; FaSSIF, pH 6.5) was 8360 µg/mL (≈ 17.9 mM), the Solubility ([5]; FeSSIF, pH 5.0) was 1240 µg/mL (≈ 2.66 mM) and the Solubility ([5]; SGF, pH 1.8) was greater than 9950 µg/mL. For the same compound, the Solubility ([5]; Water, pH 7.4) was greater than 10020 µg/mL, the “Water activity at which crystal form K is thermodynamically more stable than crystal form F” value [6] was “greater than or equal to 0.15” and the “Crystal form after competition with crystal form F” value (“Crystal form … with crystal form F” below) ([6]; water activity 0.00, IPA, 12 hours stirring) was “Crystal form F”. The “Crystal form … with crystal form F” value ([6]; water activity 0.15, IPA:H2O 99:1, 12 hours stirring) was “Crystal form K”, the “Crystal form … with crystal form F” value ([6]; water activity 0.39, IPA:H2O 24:1, 12 hours stirring) was “Crystal form K” and the “Crystal form … with crystal form F” value ([6]; water activity 0.60, ACN:H2O 19:1, 12 hours stirring) was “Crystal form K”. For the same compound, the “Crystal form … with crystal form F” value ([6]; water activity 0.80, ACN:H2O 9:1, 12 hours stirring) was “Crystal form K”.
For `CN(C)C/C=C/C(=O)Nc1cc2c(Nc3ccc(F)c(Cl)c3)ncnc2cc1OC(F)F` [Free base], the “Long-term storage stability (in words)” value [3] was “poor”, the “XRPD pattern after storage (physical stability)” value [3] was “changed significantly” and the Initial content [1] was 100.0%. The “Chemical stability, 25° C./60% R.H. One week” value [1] was 99.8%, the “Chemical stability, 40° C./75% R.H. One week” value [1] was 94.8% and the “Chemical stability, 40° C./75% R.H. One week” value ([1]; listed as free base) was 94.8%. The “Water solubility (in words)” value [5] was “poor”, the Solubility ([5]; FaSSIF, pH 6.5) was 30 µg/mL (≈ 0.0644 mM) and the Solubility ([5]; FeSSIF, pH 5.0) was 100 µg/mL (≈ 0.215 mM). It also gave a Solubility ([5]; SGF, pH 1.8, simulated gastric fluid, thermodynamic from solid, SGF, pH 1.8, read-out: Solubility) of 8370 µg/mL (≈ 18 mM) and a Solubility ([5]; Water, pH 7.4) of less than 2.5 µg/mL.
